ChEMBL document CHEMBL5244205, “Discovery of tricyclic dipyrrolopyridine derivatives as novel JAK inhibitors” (Bioorg Med Chem, 2017)

Assays:
[1] = Clearance in Sprague-Dawley rat at 1 mg/kg, iv measured up to 24 hrs by LC-MS/MS analysis; format: ADME, organism-based; settings: in vivo
[2] = Volume of distribution in Sprague-Dawley rat at 1 mg/kg, iv measured up to 24 hrs by LC-MS/MS analysis; format: ADME, organism-based; settings: in vivo
[3] = Half life in Sprague-Dawley rat at 1 mg/kg, iv measured up to 24 hrs by LC-MS/MS analysis; format: ADME, organism-based; settings: in vivo
[4] = AUC (0 to 24 hrs) in Sprague-Dawley rat at 1 mg/kg, iv measured up to 24 hrs by LC-MS/MS analysis; format: ADME, organism-based; parameters: dose 1 mg/kg, time < 24 hrs, route iv; settings: in vivo
[5] = Cmax in Sprague-Dawley rat at 1 mg/kg, po measured up to 24 hrs by LC-MS/MS analysis; format: ADME, organism-based; parameters: time < 24 hrs, dose 1 mg/kg, route po; settings: in vivo
[6] = Half life in Sprague-Dawley rat at 1 mg/kg, po measured up to 24 hrs by LC-MS/MS analysis; format: ADME, organism-based; settings: in vivo
[7] = AUC (0 to 24 hrs) in Sprague-Dawley rat at 1 mg/kg, po measured up to 24 hrs by LC-MS/MS analysis; format: ADME, organism-based; parameters: dose 1 mg/kg, time < 24 hrs, route po; settings: in vivo
[8] = Tmax in Sprague-Dawley rat at 1 mg/kg, po measured up to 24 hrs by LC-MS/MS analysis; format: ADME, organism-based; settings: in vivo
[9] = target: Tyrosine-protein kinase JAK2 (Homo sapiens, UniProt O60674)
Description: Inhibition of human JAK2 kinase domain using biotin-Lyn-substrate-2 as substrate incubated for 1 hr by ELISA

[10] = target: Tyrosine-protein kinase ABL1 (Homo sapiens, UniProt P00519); test: Inhibition of ABL (unknown origin)
Chain of Tyrosine-protein kinase ABL1 (P00519 whole entry): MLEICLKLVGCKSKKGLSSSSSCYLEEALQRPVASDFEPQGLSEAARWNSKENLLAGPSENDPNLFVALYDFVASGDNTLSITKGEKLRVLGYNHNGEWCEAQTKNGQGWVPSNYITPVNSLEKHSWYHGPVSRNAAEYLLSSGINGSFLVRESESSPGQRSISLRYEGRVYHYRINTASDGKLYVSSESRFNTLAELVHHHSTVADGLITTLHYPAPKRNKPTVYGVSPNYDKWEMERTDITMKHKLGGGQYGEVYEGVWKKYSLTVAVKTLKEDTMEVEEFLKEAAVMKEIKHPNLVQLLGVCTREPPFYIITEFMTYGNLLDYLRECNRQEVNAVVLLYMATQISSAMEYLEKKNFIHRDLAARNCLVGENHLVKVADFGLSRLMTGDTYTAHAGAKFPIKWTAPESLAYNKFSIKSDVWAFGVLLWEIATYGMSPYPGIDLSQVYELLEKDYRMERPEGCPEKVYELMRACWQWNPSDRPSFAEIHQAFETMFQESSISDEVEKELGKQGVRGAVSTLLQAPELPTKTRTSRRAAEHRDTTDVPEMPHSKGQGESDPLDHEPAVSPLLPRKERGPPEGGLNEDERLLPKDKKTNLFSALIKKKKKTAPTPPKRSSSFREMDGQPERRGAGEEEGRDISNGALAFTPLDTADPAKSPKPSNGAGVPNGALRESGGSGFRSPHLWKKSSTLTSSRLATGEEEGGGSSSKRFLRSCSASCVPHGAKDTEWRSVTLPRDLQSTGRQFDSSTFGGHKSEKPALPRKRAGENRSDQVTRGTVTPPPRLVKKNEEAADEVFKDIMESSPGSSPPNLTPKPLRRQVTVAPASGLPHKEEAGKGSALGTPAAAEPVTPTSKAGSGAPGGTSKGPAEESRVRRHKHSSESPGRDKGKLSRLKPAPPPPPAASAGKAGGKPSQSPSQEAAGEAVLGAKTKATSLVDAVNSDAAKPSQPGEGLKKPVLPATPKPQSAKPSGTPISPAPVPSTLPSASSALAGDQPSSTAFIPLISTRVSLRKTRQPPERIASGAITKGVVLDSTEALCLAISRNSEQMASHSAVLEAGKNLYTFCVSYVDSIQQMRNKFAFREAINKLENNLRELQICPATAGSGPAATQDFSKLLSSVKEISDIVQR

[11] = target: Epidermal growth factor receptor (Homo sapiens, UniProt P00533); test: Inhibition of EGFR (unknown origin)
Ephrin type-A receptor 2 = Ephrin type-A receptor 2 (Homo sapiens, UniProt P29317); test: Inhibition of EphA2 (unknown origin)
Chain of Ephrin type-A receptor 2 (P29317 whole entry): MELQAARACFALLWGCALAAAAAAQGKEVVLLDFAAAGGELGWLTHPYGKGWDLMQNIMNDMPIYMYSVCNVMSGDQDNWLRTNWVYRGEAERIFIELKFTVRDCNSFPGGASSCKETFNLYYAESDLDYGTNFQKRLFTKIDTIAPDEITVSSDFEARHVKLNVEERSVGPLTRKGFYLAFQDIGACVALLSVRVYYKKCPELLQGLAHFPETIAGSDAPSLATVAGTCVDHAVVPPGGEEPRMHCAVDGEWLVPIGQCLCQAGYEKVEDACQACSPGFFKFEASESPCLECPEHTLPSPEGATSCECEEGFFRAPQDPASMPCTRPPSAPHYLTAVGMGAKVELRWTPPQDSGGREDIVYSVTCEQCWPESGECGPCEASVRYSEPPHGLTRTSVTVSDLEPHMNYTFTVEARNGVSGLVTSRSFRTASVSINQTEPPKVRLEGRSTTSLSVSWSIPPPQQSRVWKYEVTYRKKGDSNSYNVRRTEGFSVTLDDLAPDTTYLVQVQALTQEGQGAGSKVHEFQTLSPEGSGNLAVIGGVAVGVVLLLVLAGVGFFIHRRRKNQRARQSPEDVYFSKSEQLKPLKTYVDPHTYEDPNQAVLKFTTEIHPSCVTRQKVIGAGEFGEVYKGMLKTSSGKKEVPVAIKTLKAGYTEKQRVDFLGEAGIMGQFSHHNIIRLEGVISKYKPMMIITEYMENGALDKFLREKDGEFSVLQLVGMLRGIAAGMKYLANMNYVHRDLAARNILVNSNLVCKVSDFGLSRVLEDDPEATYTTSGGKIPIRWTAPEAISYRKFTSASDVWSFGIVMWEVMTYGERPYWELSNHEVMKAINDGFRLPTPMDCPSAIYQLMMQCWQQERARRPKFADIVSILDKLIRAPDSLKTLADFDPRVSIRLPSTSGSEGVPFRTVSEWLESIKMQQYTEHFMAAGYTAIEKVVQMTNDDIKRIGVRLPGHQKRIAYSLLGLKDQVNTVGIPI

[12] = target: Insulin-like growth factor 1 receptor (Homo sapiens, UniProt P08069); test: Inhibition of IGF1R (unknown origin)
[13] = target: Tyrosine-protein kinase ITK/TSK (Homo sapiens, UniProt Q08881); test: Inhibition of ITK (unknown origin)
[14] = target: Proto-oncogene tyrosine-protein kinase Src (Homo sapiens, UniProt P12931); test: Inhibition of SRC (unknown origin)
[15] = Inhibition of SYK (unknown origin); parameters: species or system Homo sapiens
[16] = target: High affinity nerve growth factor receptor (Homo sapiens, UniProt P04629); test: Inhibition of TRKA (unknown origin)
[17] = target: RAC-alpha serine/threonine-protein kinase (Homo sapiens, UniProt P31749); test: Inhibition of AKT1 (unknown origin)
Chain of RAC-alpha serine/threonine-protein kinase (P31749 whole entry): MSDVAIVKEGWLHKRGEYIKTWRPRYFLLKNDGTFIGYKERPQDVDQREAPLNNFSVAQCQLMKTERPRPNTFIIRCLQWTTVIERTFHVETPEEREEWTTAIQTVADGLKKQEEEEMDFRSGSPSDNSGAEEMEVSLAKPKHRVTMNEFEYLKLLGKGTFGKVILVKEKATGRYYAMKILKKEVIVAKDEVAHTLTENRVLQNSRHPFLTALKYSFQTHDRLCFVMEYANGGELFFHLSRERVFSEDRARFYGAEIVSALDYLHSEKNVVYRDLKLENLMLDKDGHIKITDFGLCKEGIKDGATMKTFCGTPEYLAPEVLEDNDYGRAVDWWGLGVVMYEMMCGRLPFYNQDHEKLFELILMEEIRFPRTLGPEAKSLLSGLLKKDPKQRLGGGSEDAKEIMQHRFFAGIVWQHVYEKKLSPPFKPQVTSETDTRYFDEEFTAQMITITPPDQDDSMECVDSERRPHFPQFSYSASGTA

Aurora kinase C = Aurora kinase C (Homo sapiens, UniProt Q9UQB9); test: Inhibition of AURC (unknown origin)
[18] = target: Bone morphogenetic protein receptor type-1A (Homo sapiens, UniProt P36894); test: Inhibition of BMPR1A (unknown origin)
[19] = target: Calcium/calmodulin-dependent protein kinase type II subunit alpha (Homo sapiens, UniProt Q9UQM7); test: Inhibition of CAMK2alpha (unknown origin)
[20] = target: Cyclin-dependent kinase 2 (Homo sapiens, UniProt P24941); test: Inhibition of CDK2 (unknown origin)
[21] = target: Serine/threonine-protein kinase Chk1 (Homo sapiens, UniProt O14757); test: Inhibition of CHK1 (unknown origin)
Chain of Serine/threonine-protein kinase Chk1 (O14757 whole entry, canonical isoform): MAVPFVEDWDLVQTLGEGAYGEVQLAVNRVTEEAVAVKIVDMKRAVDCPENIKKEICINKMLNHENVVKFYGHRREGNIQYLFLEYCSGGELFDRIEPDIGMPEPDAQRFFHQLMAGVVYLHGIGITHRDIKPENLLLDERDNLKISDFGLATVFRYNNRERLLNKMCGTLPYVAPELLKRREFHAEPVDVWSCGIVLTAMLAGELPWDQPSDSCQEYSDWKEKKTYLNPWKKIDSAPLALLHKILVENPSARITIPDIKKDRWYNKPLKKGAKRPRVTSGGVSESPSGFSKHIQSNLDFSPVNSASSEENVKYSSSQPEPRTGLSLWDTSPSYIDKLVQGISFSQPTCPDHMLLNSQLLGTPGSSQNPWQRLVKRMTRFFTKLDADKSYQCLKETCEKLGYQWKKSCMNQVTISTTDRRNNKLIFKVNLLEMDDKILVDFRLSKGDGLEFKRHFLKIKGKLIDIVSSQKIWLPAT

[22] = target: Casein kinase I isoform delta (Homo sapiens, UniProt P48730); test: Inhibition of CHKdelta (unknown origin)
[23] = target: Glycogen synthase kinase-3 beta (Homo sapiens, UniProt P49841); test: Inhibition of GSK3beta (unknown origin)
[24] = target: Inhibitor of nuclear factor kappa-B kinase subunit beta (Homo sapiens, UniProt O14920); test: Inhibition of IKKB (unknown origin)
Chain of Inhibitor of nuclear factor kappa-B kinase subunit beta (O14920 whole entry): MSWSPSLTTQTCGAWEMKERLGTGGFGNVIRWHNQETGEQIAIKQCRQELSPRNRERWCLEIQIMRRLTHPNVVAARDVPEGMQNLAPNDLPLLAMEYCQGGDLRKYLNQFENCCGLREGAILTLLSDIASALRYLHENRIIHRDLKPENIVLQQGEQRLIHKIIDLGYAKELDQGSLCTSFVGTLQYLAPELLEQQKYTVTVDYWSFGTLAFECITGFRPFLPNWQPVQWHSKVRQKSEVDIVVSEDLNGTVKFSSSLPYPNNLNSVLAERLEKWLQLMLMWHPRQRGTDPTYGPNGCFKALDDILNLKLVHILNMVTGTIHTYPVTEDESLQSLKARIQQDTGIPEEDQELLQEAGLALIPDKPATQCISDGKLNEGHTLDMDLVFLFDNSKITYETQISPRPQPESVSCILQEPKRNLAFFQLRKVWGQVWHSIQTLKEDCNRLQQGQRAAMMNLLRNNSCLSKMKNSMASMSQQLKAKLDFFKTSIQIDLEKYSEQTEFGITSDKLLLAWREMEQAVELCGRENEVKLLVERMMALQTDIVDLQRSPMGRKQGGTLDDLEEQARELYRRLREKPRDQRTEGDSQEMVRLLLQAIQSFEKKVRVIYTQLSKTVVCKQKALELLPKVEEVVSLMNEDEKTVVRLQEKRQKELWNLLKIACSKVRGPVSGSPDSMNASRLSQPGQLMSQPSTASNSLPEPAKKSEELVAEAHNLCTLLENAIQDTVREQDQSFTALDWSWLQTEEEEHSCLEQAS

[25] = target: Mitogen-activated protein kinase 8 (Homo sapiens, UniProt P45983); test: Inhibition of JNK1 (unknown origin)
Chain of Mitogen-activated protein kinase 8 (P45983 whole entry): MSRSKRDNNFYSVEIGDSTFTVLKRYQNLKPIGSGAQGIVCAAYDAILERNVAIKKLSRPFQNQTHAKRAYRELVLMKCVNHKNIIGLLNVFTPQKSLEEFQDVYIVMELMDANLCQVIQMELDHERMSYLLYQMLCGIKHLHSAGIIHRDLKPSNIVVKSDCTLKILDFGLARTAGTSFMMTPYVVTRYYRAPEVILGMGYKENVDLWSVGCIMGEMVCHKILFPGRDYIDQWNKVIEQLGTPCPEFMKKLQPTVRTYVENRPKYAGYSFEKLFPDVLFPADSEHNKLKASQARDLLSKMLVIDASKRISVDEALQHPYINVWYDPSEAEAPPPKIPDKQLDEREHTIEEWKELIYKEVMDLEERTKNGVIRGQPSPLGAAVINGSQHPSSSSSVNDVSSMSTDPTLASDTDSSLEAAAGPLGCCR

[26] = target: Dual specificity mitogen-activated protein kinase kinase 1 (Homo sapiens, UniProt Q02750); test: Inhibition of MAP2K1 (unknown origin)
[27] = target: Mitogen-activated protein kinase kinase kinase 1 (Homo sapiens, UniProt Q13233); test: Inhibition of MAP3K1 (unknown origin)
[28] = target: MAP kinase-activated protein kinase 2 (Homo sapiens, UniProt P49137); test: Inhibition of MAPKAPK2 (unknown origin)
[29] = target: Mitogen-activated protein kinase 11 (Homo sapiens, UniProt Q15759); test: Inhibition of P38beta (unknown origin)
[30] = target: Ribosomal protein S6 kinase beta-1 (Homo sapiens, UniProt P23443); test: Inhibition of p70S6K (unknown origin)
[31] = target: RAF proto-oncogene serine/threonine-protein kinase (Homo sapiens, UniProt P04049); test: Inhibition of RAF1 (unknown origin)
Chain of RAF proto-oncogene serine/threonine-protein kinase (P04049 whole entry): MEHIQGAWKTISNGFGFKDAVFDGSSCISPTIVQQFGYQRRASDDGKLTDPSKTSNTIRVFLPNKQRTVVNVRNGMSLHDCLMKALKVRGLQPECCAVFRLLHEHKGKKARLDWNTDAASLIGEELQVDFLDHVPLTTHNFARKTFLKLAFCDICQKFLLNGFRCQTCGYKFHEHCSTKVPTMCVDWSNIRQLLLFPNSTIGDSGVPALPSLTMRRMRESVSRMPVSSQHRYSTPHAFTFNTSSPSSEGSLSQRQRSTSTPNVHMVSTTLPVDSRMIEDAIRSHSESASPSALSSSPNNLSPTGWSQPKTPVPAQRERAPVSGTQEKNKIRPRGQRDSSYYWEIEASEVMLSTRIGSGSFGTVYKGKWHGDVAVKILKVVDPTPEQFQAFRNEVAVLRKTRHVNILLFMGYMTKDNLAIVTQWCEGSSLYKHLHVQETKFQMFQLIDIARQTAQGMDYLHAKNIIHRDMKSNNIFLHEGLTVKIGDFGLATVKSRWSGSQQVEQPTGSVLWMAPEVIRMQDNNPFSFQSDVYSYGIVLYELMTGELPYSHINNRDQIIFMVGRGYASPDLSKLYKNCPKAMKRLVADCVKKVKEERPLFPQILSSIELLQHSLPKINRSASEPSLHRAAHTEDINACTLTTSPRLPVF

Rattus norvegicus [32] = test: Immunosuppressive activity in Lewis rat transplanted with ACI rat cardiac tissue assessed as reduction in graft rejection by measuring mean survival days at 0.1 mg/kg, po administered for 14 consecutive days co-treated with tacrolimus (reference value: 10 days); format: functional; settings: time 14 day
Rattus norvegicus [33] = test: Immunosuppressive activity in Lewis rat transplanted with ACI rat cardiac tissue assessed as reduction in graft rejection by measuring mean survival days at 0.25 mg/kg, po administered for 14 consecutive days co-treated with tacrolimus (reference value: 10 days); format: functional; settings: time 14 day
Rattus norvegicus [34] = test: Immunosuppressive activity in Lewis rat transplanted with ACI rat cardiac tissue assessed as reduction in graft rejection by measuring mean survival days at 0.5 mg/kg, po administered for 14 consecutive days co-treated with tacrolimus (reference value: 10 days); format: functional; settings: time 14 day
[35] = target: Tyrosine-protein kinase JAK1 (Homo sapiens, UniProt P23458)
Description: Inhibition of human JAK1 kinase domain using biotin-Lyn-substrate-2 as substrate incubated for 1 hr by ELISA

Cytochrome P450 3A4 = Cytochrome P450 3A4 (Homo sapiens, UniProt P08684); settings: microsomes, 20 min, 5 µM
[36] = pampa, pH 6.5, 2 h
Description: Permeability of the compound in pH 6.5 incubated for 2 hrs by PAMPA based HPLC analysis

cells = settings: Rattus norvegicus, Lewis, Splenocyte, 72 h
Description: Immunosuppressive activity in Lewis rat splenocytes assessed as inhibition of concanavalin A-induced IL-2 receptor expression incubated for 3 days by alamarBlue assay

C[C@@H]1CCN(C(=O)CC#N)C[C@@H]1n1ccc2cnc3[nH]ccc3c21
clearance [1]: 18.8 mL/min/kg | Vd [2]: 1.52 L/kg | half-life [3]: 1.64 h | AUC(0-t) at 24 h [4]: 889 ng·h/mL | Cmax [5]: 260 ng/mL | half-life [6]: 2.58 h | AUC(0-t) at 24 h [7]: 917 ng·h/mL | Tmax [8]: 0.5 h | IC50 [9]: 0.3 nM | IC50 [10]: > 1000 nM | IC50 [11]: > 1000 nM | IC50 (Ephrin type-A receptor 2): > 1000 nM | IC50 [12]: > 1000 nM | IC50 [13]: > 1000 nM | IC50 [14]: > 1000 nM | IC50 [15]: > 1000 nM | IC50 [16]: > 1000 nM | IC50 [17]: > 1000 nM | IC50 (Aurora kinase C): > 1000 nM | IC50 [18]: > 1000 nM | IC50 [19]: > 1000 nM | IC50 [20]: > 1000 nM | IC50 [21]: > 1000 nM | IC50 [22]: > 1000 nM | IC50 [23]: > 1000 nM | IC50 [24]: > 1000 nM | IC50 [25]: > 1000 nM | IC50 [26]: > 1000 nM | IC50 [27]: > 1000 nM | IC50 [28]: > 1000 nM | IC50 [29]: > 1000 nM | IC50 [30]: > 1000 nM | IC50 [31]: > 1000 nM | MST (Rattus norvegicus [32]): 9 days | MST (Rattus norvegicus [33]): 21 days | MST (Rattus norvegicus [34]): 21 days | IC50 [35]: 0.46 nM | TDI (Cytochrome P450 3A4): 89% | permeability [36]: 20 10^-6 cm/s | IC50 (cells): 4.3 nM
